Measurements published in ChEMBL document CHEMBL4411324, “Comprehensive structure-activity-relationship of azaindoles as highly potent FLT3 inhibitors” (Bioorg Med Chem, 2019).

Tested on: Receptor-type tyrosine-protein kinase FLT3 (Homo sapiens), P36888 [UNDEFINED MUTATION]
Test: Inhibition of recombinant human N-terminal GST/His6-fused FLT3 ITD mutant (R571 to S993 residues) expressed in Sf9 insect cells assessed as residual activity at 2 uM using ULightTM-TK peptide as substrate incubated for 90 mins under dark condition by FRET assay relative to control
Details: not given

Sequence of Receptor-type tyrosine-protein kinase FLT3 (Homo sapiens), P36888 [UNDEFINED MUTATION] (P36888 whole entry, looked up, stated change not applied, the tested form may be a part): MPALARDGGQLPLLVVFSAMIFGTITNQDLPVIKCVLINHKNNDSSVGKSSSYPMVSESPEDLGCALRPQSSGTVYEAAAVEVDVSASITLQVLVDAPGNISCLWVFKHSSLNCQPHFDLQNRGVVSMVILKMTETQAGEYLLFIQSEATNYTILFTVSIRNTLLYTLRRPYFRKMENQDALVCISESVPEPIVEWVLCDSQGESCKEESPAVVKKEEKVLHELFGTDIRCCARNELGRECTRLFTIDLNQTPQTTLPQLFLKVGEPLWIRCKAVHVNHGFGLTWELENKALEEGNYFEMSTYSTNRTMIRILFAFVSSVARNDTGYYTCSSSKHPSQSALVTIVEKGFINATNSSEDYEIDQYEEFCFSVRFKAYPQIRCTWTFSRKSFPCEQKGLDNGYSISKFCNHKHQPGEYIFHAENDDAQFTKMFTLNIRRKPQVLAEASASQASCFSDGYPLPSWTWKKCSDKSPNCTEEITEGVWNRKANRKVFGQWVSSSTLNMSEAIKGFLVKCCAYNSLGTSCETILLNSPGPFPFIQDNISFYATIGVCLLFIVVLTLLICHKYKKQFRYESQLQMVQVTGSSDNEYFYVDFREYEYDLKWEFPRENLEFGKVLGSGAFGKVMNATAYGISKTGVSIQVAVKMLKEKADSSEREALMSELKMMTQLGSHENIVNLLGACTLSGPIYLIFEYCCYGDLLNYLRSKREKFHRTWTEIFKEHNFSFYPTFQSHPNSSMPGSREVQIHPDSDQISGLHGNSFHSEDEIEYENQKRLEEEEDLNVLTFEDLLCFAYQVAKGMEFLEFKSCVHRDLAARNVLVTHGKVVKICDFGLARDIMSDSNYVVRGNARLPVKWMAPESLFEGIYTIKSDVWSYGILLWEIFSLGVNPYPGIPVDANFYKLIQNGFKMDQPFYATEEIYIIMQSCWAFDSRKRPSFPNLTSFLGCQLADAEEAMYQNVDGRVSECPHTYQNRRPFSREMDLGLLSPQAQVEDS

Activity [%]	SMILES
13	O=S(=O)(NCCNC/C=C/c1ccc(-c2cncnc2)cc1)c1cccc2cnccc12
9	O=S(=O)(NCCNC/C=C/c1ccc(-c2cnc3ccccc3c2)cc1)c1cccc2cnccc12
13	O=S(=O)(NCCNC/C=C/c1ccc(-c2cccnc2)cc1)c1cccc2cnccc12
14	O=S(=O)(NCCNC/C=C/c1ccc(-c2cn[nH]c2)cc1)c1cccc2cnccc12

Target: Receptor-type tyrosine-protein kinase FLT3 (Homo sapiens, UniProt P36888, ITD)
Sequence (P36888 whole entry, looked up, stated change not applied, the tested form may be a part): as above
Test: Inhibition of recombinant human N-terminal GST/His6-fused FLT3 ITD mutant (R571 to S993 residues) expressed in Sf9 insect cells assessed as residual activity using ULightTM-TK peptide as substrate incubated for 90 mins under dark condition by FRET assay
Details: not given

IC50 [nM]	SMILES
26.9	Nc1ccccc1S(=O)(=O)NCCNC/C=C/c1ccc(-c2cccnc2)cc1
1.91	O=C(CCc1ccc(-c2cnc3[nH]ccc3c2)cc1)NCCNS(=O)(=O)c1cccc(Cl)c1
158	O=S(=O)(NCCNCc1ccc(-c2cccnc2)cc1)c1cccc2cnccc12
4.37	O=S(=O)(NCCNCCCc1ccc(-c2cnc3[nH]ccc3c2)cc1)c1ccc(Cl)cc1
1.32	O=S(=O)(NCCNCCCc1ccc(-c2cnc3[nH]ccc3c2)cc1)c1ccccc1
17	O=S(=O)(NCCNC/C=C/c1ccc(-c2cccnc2)cc1)c1ccc2cn[nH]c2c1
1.66	O=S(=O)(NCCNCCCc1ccc(-c2cnc3[nH]ccc3c2)cc1)c1cccc2cnccc12
562	O=S(=O)(NCCNCc1ccc2cc(-c3cccnc3)ccc2c1)c1cccc2cnccc12
13.8	CNC(=O)c1ccc(S(=O)(=O)NCCNC/C=C/c2ccc(-c3cccnc3)cc2)cn1
126	CN(C/C=C/c1ccc(-c2cccnc2)cc1)CCN(C)S(=O)(=O)c1cccc2cnccc12
1.82	COc1ccc(S(=O)(=O)NCCNC(=O)CCc2ccc(-c3cnc4[nH]ccc4c3)cc2)cc1
170	O=S(=O)(NCCCCCCc1ccc(-c2cccnc2)cc1)c1cccc2cnccc12
38.9	O=S(=O)(NCCOCCCc1ccc(-c2cccnc2)cc1)c1cccc2cnccc12
32.4	O=C(CCc1ccc(-c2cccnc2)cc1)NCCNS(=O)(=O)c1cccc2cnccc12
8.51	O=[N+]([O-])c1ccccc1S(=O)(=O)NCCNC/C=C/c1ccc(-c2cccnc2)cc1
> 10000	O=S(=O)(NCCNC/C=C/c1ccc(-c2ccc3ccccc3c2)cc1)c1cccc2cnccc12
23.4	Nc1ccc(-c2ccc(CCC(=O)NCCNS(=O)(=O)c3cccc4cnccc34)cc2)cn1
269	O=S(=O)(NCCNCCc1ccc(-c2cccnc2)cc1)c1cccc2cnccc12
4.27	O=C(CCc1ccc(-c2cnc3[nH]ccc3c2)cc1)NCCNS(=O)(=O)c1cccc(C(F)(F)F)c1
19.5	Nc1cc2c(S(=O)(=O)NCCNC/C=C/c3ccc(-c4cccnc4)cc3)cccc2cn1
2.4	COc1ccc(S(=O)(=O)NCCNCCCc2ccc(-c3cnc4[nH]ccc4c3)cc2)cc1
> 10000	CNC(=O)c1ncccc1-c1ccc(CCC(=O)NCCNS(=O)(=O)c2cccc3cnccc23)cc1
9.77	O=S(=O)(NCCNC/C=C/c1ccc(-c2cccnc2)cc1)c1ccc2[nH]ncc2c1
646	CS(=O)(=O)NCCNC/C=C/c1ccc(-c2cccnc2)cc1
> 10000	O=C(NCCNC/C=C/c1ccc(-c2cccnc2)cc1)c1cccc2cnccc12

IC50 [nM]	SMILES
2.14	Cc1ccc(S(=O)(=O)NCCNC(=O)CCc2ccc(-c3cnc4[nH]ccc4c3)cc2)cc1
7.41	O=S(=O)(NCCNCCCc1ccc(-c2cnc3[nH]ccc3c2)cc1)c1ccc(Cl)c(Cl)c1
6.92	O=C(CCc1ccc(-c2cnc3[nH]ccc3c2)cc1)NCCNS(=O)(=O)c1cc(Cl)cc(Cl)c1
47.9	CN(CCNCCCc1ccc(-c2cccnc2)cc1)S(=O)(=O)c1cccc2cnccc12
2.04	Cc1ccc(S(=O)(=O)NCCNCCCc2ccc(-c3cnc4[nH]ccc4c3)cc2)cc1
47.9	O=C1NCc2ccc(S(=O)(=O)NCCNC/C=C/c3ccc(-c4cccnc4)cc3)cc21
> 10000	CNC(=O)c1ccc(-c2ccc(CCC(=O)NCCNS(=O)(=O)c3cccc4cnccc34)cc2)cn1
0.479	O=C(CCc1ccc(-c2cnc3[nH]ccc3c2)cc1)NCCNS(=O)(=O)c1ccccc1Cl
1.35	O=C(CCc1ccc(-c2cnc3[nH]ccc3c2)cc1)NCCNS(=O)(=O)c1cccc2cnccc12
2.4	O=C(CCc1ccc(-c2cnc3[nH]ccc3c2)cc1)NCCNS(=O)(=O)c1ccc(Cl)cc1
9.55	O=S(=O)(NCCNC/C=C/c1ccc(-c2cccnc2)cc1)c1cccc2cnccc12
8.91	O=S(=O)(NCCNCCCc1ccc(-c2cccnc2)cc1)c1cccc2cnccc12
182	CN(CCNC/C=C/c1ccc(-c2cccnc2)cc1)S(=O)(=O)c1cccc2cnccc12
151	Nc1ncccc1-c1ccc(CCC(=O)NCCNS(=O)(=O)c2cccc3cnccc23)cc1
0.324	O=C(CCc1ccc(-c2cnc3[nH]ccc3c2)cc1)NCCNS(=O)(=O)c1ccccc1
8.32	O=S(=O)(NCCOC/C=C/c1ccc(-c2cccnc2)cc1)c1cccc2cnccc12
135	CN(C/C=C/c1ccc(-c2cccnc2)cc1)CCNS(=O)(=O)c1cccc2cnccc12
18.2	O=C1NCc2cc(S(=O)(=O)NCCNC/C=C/c3ccc(-c4cccnc4)cc3)ccc21
> 10000	O=S(=O)(NCCNC/C=C/c1ccc(-c2ccccc2)cc1)c1cccc2cnccc12
61.7	O=S(=O)(NCCNC/C=C/c1ccc(-c2cccnc2)cc1)c1cccc2ccccc12
24	Nc1nccc2c(S(=O)(=O)NCCNC/C=C/c3ccc(-c4cccnc4)cc3)cccc12
20	O=C1NCc2c1cccc2S(=O)(=O)NCCNC/C=C/c1ccc(-c2cccnc2)cc1
4.07	O=C(CCc1ccc(-c2cnc3[nH]ccc3c2)cc1)NCCNS(=O)(=O)c1ccc(Cl)c(Cl)c1
0.407	O=C(CCc1ccc(-c2cnc3[nH]ccc3c2)cc1)NCCNS(=O)(=O)c1ccc(F)cc1

Tested on: not listed separately
Test: Lipophilicity, log D of the compound at pH 7.4
Assay type: physicochemical
Details: buffer

logD	SMILES
1.5	O=S(=O)(NCCNC/C=C/c1ccc(-c2cccnc2)cc1)c1cccc2cnccc12
